# Measured values as given in PubChem BioAssay AID686920 (Broad Institute, 2013).
# Calls of active or inactive are those of the source.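 How the source made its calls: active means fitted curve reaching 35% inhibition at a dose no higher than twice the top valid tested dose; inconclusive means flat fit with 30 to 70% inhibition, or a poor fit; inactive means the rest, including activity in the opposite direction.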
# Tested on: not listed separately
# Experiment: NR0B1 reporter signal reduction in A673 cells – cell-based, luciferase luminescence, cherry-pick, EWS/Fli inhibitor project, dose response (AID 686920)
# Conditions: A673 NR0B1-luciferase reporter, viability-normalised luminescence; at 7.5 µM (top of the series)
row,Structure (SMILES),"activity change, negative = inhibition"
1,O=C(CCCCl)Nc1nc(-c2ccc3c(c2)OCCO3)cs1,80% (inactive)

# Same assay, conditions: A673 NR0B1-luciferase reporter, viability-normalised luminescence; at 21 µM (top of the series)
row,Structure (SMILES),"activity change, negative = inhibition"
1,Cc1ccc(Cc2c(-c3ccco3)nc3c(C)cc(Br)cn23)cc1,77.8% (inactive)
2,COC(=O)C[C@@H]1CC[C@@H]2[C@@H](COc3ccc(NC(=O)Nc4cccc(F)c4)cc3C(=O)N2C)O1,-4.28% (inactive)

# Same assay, conditions: A673 NR0B1-luciferase reporter, viability-normalised luminescence; at 68 µM (top of the series)
row,Structure (SMILES),"activity change, negative = inhibition"
1,O=C(Cc1nn[nH]n1)c1ccccc1O,7.17% (inactive)
2,CCOc1cc2[nH]c(=S)n(Cc3ccc(C(=O)N4CCN(C)CC4)cc3)c(=O)c2cc1OCC,20% (inactive)
3,C/C=C/c1ccc([C@H]2[C@@H](CO)N3C(=O)CN(S(=O)(=O)c4cccc(F)c4)C[C@@H]23)cc1,-7.12% (inactive)
4,COC(=O)C(CC#Cc1ccc2c(c1)[C@]1(C(=O)N2)[C@H](c2ccc(OCCO)cc2)N2[C@H](c3ccccc3)[C@H](c3ccccc3)OC(=O)[C@H]2[C@@H]1C(=O)N1CCN(c2ncccn2)CC1)C(=O)OC,0.883% (inactive)
5,Cc1cc(C(=O)NNC(=O)c2ccc(S(=O)(=O)N(C)C)cc2)c(C)o1,5.18% (inactive)
6,C[C@H](CO)N1C[C@H](C)[C@H](CN(C)Cc2ccc(C(=O)Nc3ccccc3N)cc2)Oc2ccc(N(C)C)cc2CC1=O,10.7% (inactive)
7,COC(=O)c1c(C)[nH]c(/C=N/Nc2ccccc2)c1C,38.6% (inactive)
8,CCNC(=O)[C@@H]1[C@@H](CO)[C@@H]2Cn3c(ccc(C4=CCCCC4)c3=O)[C@H]1N2CC,-2.58% (inactive)
9,Cc1ccc(N=C2NC(=O)/C(=C\c3cccs3)S2)cc1C,48.8% (inactive)
10,CCS(=O)(=O)N1Cc2ccccc2CC1C(=O)Nc1nnc(SCc2ccc(C#N)cc2)s1 (stereo unspecified),-0.731% (inactive)
11,Nc1ccn([C@@H]2O[C@H](CO)[C@@H](O)C2O)c(=O)n1 (stereo partly specified),-31.3% (inactive)
12,COC(=O)C[C@H]1C=C[C@@H](NC(=O)Nc2ccc(C(F)(F)F)cc2)[C@H](CO)O1,8.17% (inactive)
13,Cc1c(N=Cc2cc(Br)cc(Br)c2O)cccc1C(=O)O,14.9% (inactive)
14,Cc1ccccc1N=Nc1c(O)n(C)c2ccccc12,-31.3% (inactive)
15,COC(=O)C[C@@H]1CC[C@@H]2[C@H](COc3ccc(NC(=O)c4cccc(Cl)c4)cc3C(=O)N2C)O1,-6.57% (inactive)
16,COc1ccc(-c2cn(-c3ccc(OC)cc3)c3[n+]2-c2ccccc2CC3)cc1,-21.1% (inactive)

row,Structure (SMILES),"activity change, negative = inhibition"
1,COc1ccccc1NS(=O)(=O)c1cc(NC(=O)c2cc3ccccc3oc2=O)ccc1C,53.4% (inactive)
2,O=C(Nc1cccc(Oc2ccc3c(c2)C(=O)NC3=O)c1)c1cccs1,-4.58% (inactive)
3,CCCn1nnc(NC(=S)NC(=O)C(C)(C)C)n1,37.8% (inactive)
4,COC(=O)[C@H]1[C@H](CO)[C@H]2Cn3c(ccc(-c4ccccc4F)c3=O)[C@@H]1N2CC1CCCC1,-18% (inactive)
5,Oc1c(Cl)cc(Cl)c2cccnc12,-29.3% (inactive)
6,CC1(CCc2ccccc2)NC(=O)N(CC(=O)N2CC(=O)Nc3ccccc32)C1=O (stereo unspecified),6.97% (inactive)
7,Cc1noc(C)c1NC(=O)Nc1ccc2c(c1)CC(=O)N([C@@H](C)CO)C[C@@H](C)[C@@H](CN(C)Cc1ccc(Cl)c(Cl)c1)O2,-31.5% (inactive)
8,Brc1ccc(CSc2nnc(-c3ccco3)o2)cc1,86.7% (inactive)
9,CN(C)C(=S)N=Nc1[nH]c2ccccc2c1O,13% (inactive)
10,Nc1ncn([C@@H]2O[C@H](CO)[C@@H](O)[C@H]2O)c(=O)n1,-32.1% (inactive)
11,Cc1ccsc1C(=O)OCC(=O)NCCC1=CCCCC1,97.5% (inactive)
12,c1cncc(-c2ccc([C@@H]3[C@H]4CNC[C@@H]3N4CC3CCOCC3)cc2)c1,-7.31% (inactive)
13,COC(=O)C[C@H]1CC[C@H]2[C@@H](COc3ccc(NC(=O)Nc4cccc(Cl)c4)cc3C(=O)N2C)O1,18.6% (inactive)
14,CCc1ccc(Cn2ncc3c(C(=O)O)cc(C)nc32)cc1,13.8% (inactive)
15,N=c1ccn2c(n1)O[C@H]1[C@H](O)[C@@H](CO)O[C@H]12,-26.9% (inactive)

# Tested on: A673 NR0B1-luciferase reporter, viability-normalised luminescence
# Experiment: as above
# Conditions: not given
row,Structure (SMILES),AC35
1,OCCN1CCN(C(=S)c2ccc(-c3ccccc3)cc2)CC1,1.94 µM
2,Cc1cc(-c2nc3cc(F)ccc3s2)ccc1N,8.89 µM
3,CC(C)(C)c1ccc(Oc2ccc(N)cn2)cc1,1.2 µM
4,O=c1[nH]c(=O)n([C@H]2C[C@H](O)[C@@H](CO)O2)cc1F,2.63 µM
5,C[C@@H]1CN([C@@H](C)CO)C(=O)c2cc(NC(=O)Nc3ccccc3)ccc2O[C@@H]1CN(C)Cc1ccc(C(=O)Nc2ccccc2N)cc1,5.75 µM
6,C[C@@H]1CN([C@@H](C)CO)C(=O)Cc2cc(N(C)C)ccc2O[C@H]1CN(C)Cc1ccc(C(=O)Nc2ccccc2N)cc1,11.4 µM
7,CCN(Cc1ccccc1)c1ccc(/C=N/N=C(N)N)cc1,10.6 µM
8,O=C(NCc1cccnc1)C1Cc2c(-c3ccc(Cl)cc3)ccnc2O1 (stereo unspecified),6.04 µM
9,O=C(NCCc1ccccc1)c1ccccc1NC(=O)C1CCCO1 (stereo unspecified),6.89 µM
10,COc1ccc(C2=Nn3c([n+](C)c4ccccc43)SC2)cc1,46.5 µM
11,CC(C)c1ccccc1NC(=O)COC(=O)CCN1C(=O)/C(=C\C=C\c2ccccc2)SC1=S,1.9 µM
12,C[C@H]1CN([C@@H](C)CO)C(=O)c2cc(NS(=O)(=O)c3ccc(Cl)cc3)ccc2O[C@H]1CN(C)Cc1ccc(C(=O)Nc2ccccc2N)cc1,14.5 µM
13,N#CC(=C1C=CC(=NO)C(Cl)=C1)c1ccccc1,5.85 µM
14,CCCCCCCCCCCCCCCCn1cc[n+](C)c1,10.3 µM
15,COCC(=O)Nc1ccc2c(c1)[C@@H]1C[C@@H](CC(=O)NCc3ccc(-c4ccccc4)cc3)O[C@@H](CO)[C@@H]1O2,10.1 µM
16,CC(C)CC#Cc1ccc([C@@H]2[C@@H](CO)N3CCCCN(S(=O)(=O)c4ccc(F)cc4)C[C@H]23)cc1,14.1 µM
17,COc1ccc(/C=C(/C(=O)c2cccs2)N2C=CC=CC2=C(C#N)C#N)cc1,37.2 µM
18,Cc1nc(N)nc(N)c1CCCc1ccc(Cl)c(Cl)c1,2.49 µM
19,NC(Cc1ccc(C(F)(F)F)cc1)c1csc(NC(=O)Nc2ccccc2Cc2ccccc2)n1 (stereo unspecified),17.6 µM
20,Cc1nc2ncccn2c1-c1csc(Nc2ccc(O)cc2)n1,8.68 µM
21,CCCCC[C@H](C)N1C[C@H](COCc2ccccc2)Oc2cc(N3CC[C@@H](N(C)C)C3)ccc2S1(=O)=O,34.7 µM
22,COc1ccc(/C=N/Nc2ccc(C(=O)O)cc2)cc1Br,3.93 µM
23,C/C(=N\NC(=O)c1n[nH]c2c1CCC2)c1cccs1,1.78 µM
24,CN(c1ccc(NC(=O)CCc2c[nH]c3ccccc23)cc1)c1ccccn1,4.96 µM
25,CN(C)C(=O)c1cccc(-c2ccc(C3[C@@H]4CN(Cc5nccs5)C[C@H]3N4)cc2)c1 (stereo partly specified),> 68 µM (inactive)
26,CCc1ccc(S(=O)(=O)c2ccc(-n3nc(C)cc3N)cc2)cc1,31.4 µM

row,Structure (SMILES),AC35
1,O=C(Nc1cccc(S(=O)(=O)N2CCCC2)c1)c1ccc(Cl)nc1,8.45 µM
2,CCOc1ccc(OCc2ccc(C(=O)NN=Cc3ccc[nH]3)cc2)cc1,0.461 µM
3,O=C(NC1CCCC1)C(c1ccccc1)n1c(CSCCOc2ccccc2)nc2ccccc21 (stereo unspecified),2.19 µM
4,Cc1ccc(C(=O)CN2C(=O)c3ccccc3S2(=O)=O)cc1,1.97 µM
5,CCOc1ccc(/C=C2\CCc3ccccc3C2=O)cc1,9.24 µM
6,C[C@H]1CN([C@@H](C)CO)C(=O)c2cc(NS(=O)(=O)c3ccc(Cl)cc3)ccc2O[C@H]1CN(C)Cc1ccc(Cl)c(Cl)c1,40.5 µM
7,O=C1NC(=O)N(CCc2ccc(F)cc2)C(=O)/C1=C/C=C/c1ccccc1,2.66 µM
8,COc1ccc(-c2ccc3c(c2)[C@H]2[C@H](CCN2S(=O)(=O)c2ccc(OC)cc2)[C@@H](CO)N3C)cc1,4.45 µM
9,CN(CCO)c1ccc(/C=N/Nc2nncc3ccccc23)cc1,5.2 µM
10,CCc1ccc(/C=C2\SC(=S)N(CCCC(=O)NC3=NCCS3)C2=O)cc1,0.588 µM
11,Cc1ccccc1N=CC1=C(O)c2ccccc2C1=O,2.72 µM
12,COc1ccc(S(=O)(=O)N2CC[C@@H]3[C@H](CO)Nc4ccc(-c5ccc(C#N)cc5)cc4[C@@H]32)cc1,4.3 µM
13,C[C@H](CO)N1C[C@H](C)[C@H](CN(C)CC2CCCCC2)Oc2ccc(NC(=O)Nc3cccc4ccccc34)cc2C1=O,43.3 µM
14,C[C@H]1CN([C@@H](C)CO)C(=O)c2cccc(NC(=O)CCCCCC(=O)Nc3ccccc3N)c2O[C@@H]1CN(C)Cc1ccc2c(c1)OCO2,15.2 µM
15,CC(=O)OC1CC(OC2C(O)CC(OC3C(O)CC(OC4CCC5(C)C(CCC6C5CCC5(C)C(C7=CC(=O)OC7)CCC65O)C4)OC3C)OC2C)OC(C)C1OC1OC(CO)C(O)C(O)C1O (stereo unspecified),0.0893 µM
16,CC(C)(C)C(=O)Cn1ncc(Cl)c(Cl)c1=O,12.9 µM
17,COc1ccc(C(CCNCc2ccc(OC(C)C)cc2)C(C)C)cc1 (stereo unspecified),15.2 µM
18,C[C@]12CC[C@H](O)C[C@H]1CC[C@@H]1C2CC[C@]2(C)[C@@H](C3=CC(=O)OC3)[C@@H](O)C[C@]12O (stereo partly specified),2.86 µM
19,O=c1[nH]c(=O)n(C2C[C@H](O)[C@@H](CO)O2)cc1C(F)(F)F (stereo partly specified),4.01 µM
20,CC(=O)OC1CC(OC2C(O)CC(OC3C(O)CC(OC4CCC5(C)C(CCC6C5CCC5(C)C(C7=CC(=O)OC7)C(O)CC65O)C4)OC3C)OC2C)OC(C)C1OC1OC(CO)C(O)C(O)C1O (stereo unspecified),0.812 µM
21,CC12CCC3C(CCC4(O)CC(O)CCC34C=NO)C1(O)CCC2C1=COC(=O)C1 (stereo unspecified),0.293 µM
22,Cc1ccc(/C=C/C(=O)N2CCN(S(=O)(=O)c3c(C)c(C)cc(C)c3C)CC2)o1,49 µM
23,COc1ccc(OC)c(Cc2cnc3nc(N)nc(N)c3c2C)c1,0.0922 µM
24,CC(C)(C)c1ccc(Cn2c(=O)cnc3ccccc32)cc1,13.2 µM
25,O=C(/C=C/c1cc(Br)ccc1O)c1ccco1,10.7 µM
26,C[C@H](CO)N1C[C@H](C)[C@H](CN(C)Cc2ccc(C(F)(F)F)cc2)Oc2c(NS(=O)(=O)c3ccc(Cl)cc3)cccc2C1=O,43.4 µM
